The text below walks through data of patent publication US10428080B2, “TBK/IKK inhibitor compounds and uses thereof” (Merck Patent GmbH, priority 2015, dated 2019).

One test has as its target T1, TBK1 (Homo sapiens, UniProt Q9UHD2).
T1 sequence (Q9UHD2 1-729): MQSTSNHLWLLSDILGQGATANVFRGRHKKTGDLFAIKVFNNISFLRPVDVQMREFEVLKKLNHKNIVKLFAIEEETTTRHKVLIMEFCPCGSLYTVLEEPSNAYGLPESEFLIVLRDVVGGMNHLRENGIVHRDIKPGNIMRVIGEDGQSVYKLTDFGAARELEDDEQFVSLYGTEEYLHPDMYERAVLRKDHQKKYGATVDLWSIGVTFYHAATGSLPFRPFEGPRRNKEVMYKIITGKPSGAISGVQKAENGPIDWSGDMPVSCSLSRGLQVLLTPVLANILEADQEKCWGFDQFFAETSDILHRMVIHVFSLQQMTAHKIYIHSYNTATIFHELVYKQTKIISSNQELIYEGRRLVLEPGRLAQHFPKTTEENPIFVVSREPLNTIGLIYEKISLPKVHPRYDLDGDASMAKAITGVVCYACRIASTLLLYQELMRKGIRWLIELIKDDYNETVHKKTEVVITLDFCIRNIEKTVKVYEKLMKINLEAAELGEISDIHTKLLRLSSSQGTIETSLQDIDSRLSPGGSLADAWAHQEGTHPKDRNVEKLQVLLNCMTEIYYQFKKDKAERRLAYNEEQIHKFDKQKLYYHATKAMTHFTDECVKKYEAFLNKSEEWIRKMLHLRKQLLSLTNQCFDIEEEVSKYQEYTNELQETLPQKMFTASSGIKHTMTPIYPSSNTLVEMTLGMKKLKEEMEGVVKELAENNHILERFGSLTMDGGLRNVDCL
Kind of test: TBK Biochemical Assay. Particulars: read-out: TBK1 IC50. The method in brief: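 Caliper LabChip mobility-shift readout of substrate and product after 90 min of TBK1 reaction at 25° C and stop-buffer addition. Compounds tested in 1:4 serial dilution over 10 points from 30 uM final at 1% DMSO; staurosporine 10 uM final defines full inhibition.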

Another test addresses T2, IKKε (Homo sapiens, UniProt Q14164).
T2 sequence (Q14164 1-716): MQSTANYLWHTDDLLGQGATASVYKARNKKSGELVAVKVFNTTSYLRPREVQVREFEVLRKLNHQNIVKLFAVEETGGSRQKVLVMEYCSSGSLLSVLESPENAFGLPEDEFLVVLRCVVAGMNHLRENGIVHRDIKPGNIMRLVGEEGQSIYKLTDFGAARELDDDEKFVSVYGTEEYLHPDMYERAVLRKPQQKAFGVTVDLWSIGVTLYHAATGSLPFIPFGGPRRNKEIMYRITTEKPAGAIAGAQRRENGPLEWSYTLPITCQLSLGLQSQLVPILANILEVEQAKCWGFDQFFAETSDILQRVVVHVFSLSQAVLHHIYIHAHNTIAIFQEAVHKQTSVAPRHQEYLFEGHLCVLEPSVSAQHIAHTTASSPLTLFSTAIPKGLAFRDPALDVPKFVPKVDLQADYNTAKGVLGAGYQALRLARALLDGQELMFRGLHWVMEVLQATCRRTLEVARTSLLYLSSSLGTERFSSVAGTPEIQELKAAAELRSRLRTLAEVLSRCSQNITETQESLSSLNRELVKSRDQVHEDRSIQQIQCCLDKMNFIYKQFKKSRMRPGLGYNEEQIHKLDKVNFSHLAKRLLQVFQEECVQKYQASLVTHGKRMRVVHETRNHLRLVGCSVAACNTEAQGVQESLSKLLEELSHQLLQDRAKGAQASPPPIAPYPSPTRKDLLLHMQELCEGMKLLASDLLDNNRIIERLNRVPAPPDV
Kind of test: IKKe Biochemical Assay. Particulars: read-out: IKKε IC50. Put shortly:
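Activity was measured as mobility-shift separation of phosphorylated from unphosphorylated substrate on a LabChip EZ Reader. Compound was titrated from 30 uM final in 10 points, 1:4 steps, with 1% DMSO, and enzyme plus substrate reacted 90 min at 25° C before stop buffer. Control wells held 10 uM staurosporine.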

Test [1] has as its system phosphorylation of the IRF-3 protein in MDA-MB-468 cells. Description: pIRF3 immunocytochemistry cell based assay. Particulars: Homo sapiens; MDA-MB-468 cells, Poly(I:C) stimulation; read-out: pIRF3 IC50. The method in brief:
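After 2 h stimulation with Poly(I:C) (10 ug/ml), following 1 h compound pre-treatment (10-point, 3-fold dilution, top 10 uM), MDA-MB-468 cells were fixed and stained with anti-pIRF3 antibody. pIRF3 fluorescence was normalized to PI staining or cell count on an Acumen cytometer. IC50 curves were derived from this.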

For orientation: pIC50 means the IC50 on a negative log10 scale, so that one unit is a factor of ten.

Structures are written as SMILES. pIC50: −log10 of the molar value. Where a name gives a salt, the structure may show the parent alone. Some results are limits rather than exact numbers.

Take `N#Cc1cc(-c2ccnc3cc(-c4ccc(C(=O)NC5CN6CCC5CC6)cc4)oc23)ccc1OC1CCOCC1` (stereo not drawn) [Compound 145, N-(1-Aza-bicyclo[2.2.2]oct-3-yl)-4-{7-[3-cyano-4-(tetrahydro-pyran-4-yloxy)-phenyl]-furo[3,2-b]pyridin-2-yl}-benzamide]: the pIC50 on TBK1 is above 7.00; at IKKε, above 7.00; in test [1], 6.00 to 7.00.

On to `COc1cc(C(=O)NC2CN3CCC2CC3)ccc1-c1cc2nccc(-c3ccc(N4CC[C@@H](F)C4)c(C#N)c3)c2o1` (stereo partly drawn) [Compound 146, N-(1-Aza-bicyclo[2.2.2]oct-3-yl)-4-{7-[3-cyano-4-((R)-3-fluoro-pyrrolidin-1-yl)-phenyl]-furo[3,2-b]pyridin-2-yl}-3-methoxy-benzamide], for which the results for the pIC50 (at TBK1; on IKKε; in test [1]) were above 7.00, above 7.00 and 6.00 to 7.00, respectively.

For the molecule `N#Cc1cc(-c2ccnc3cc(-c4ccc(C(=O)N5CCC(F)(F)C5)cc4)oc23)ccc1OC1CCOCC1` [Compound 148, 5-{2-[4-(3,3-Difluoro-pyrrolidine-1-carbonyl)-phenyl]-furo[3,2-b]pyridin-7-yl}-2-(tetrahydro-pyran-4-yloxy)-benzonitrile], the values for the pIC50 (at TBK1; at IKKε; in test [1]) were above 7.00, above 7.00 and 5.30 to 6.00, respectively.

Consider `COc1cc(C(=O)N(C)C)ccc1-c1cc2nccc(-c3ccc(OC4CCN(C)C4)c(C#N)c3)c2o1` (stereo not drawn) [Compound 149, 4-{7-[3-Cyano-4-(1-methyl-pyrrolidin-3-yloxy)-phenyl]-furo[3,2-b]pyridin-2-yl}-3-methoxy-N,N-dimethyl-benzamide], for which the pIC50 is above 7.00 on TBK1, above 7.00 at IKKε and 6.00 to 7.00 in test [1].

For `COc1cc(C(=O)N(C)C)ccc1-c1cc2nccc(-c3ccc(OC4CCN(C)CC4)c(C#N)c3)c2o1` [Compound 150, 4-{7-[3-Cyano-4-(1-methyl-piperidin-4-yloxy)-phenyl]-furo[3,2-b]pyridin-2-yl}-3-methoxy-N,N-dimethyl-benzamide], the pIC50 at TBK1 is above 7.00; on IKKε, above 7.00; in test [1], 6.00 to 7.00.

Regarding `COc1cc(C(=O)N(C)C)ccc1-c1cc2nccc(-c3ccc(O[C@@H]4CCNC[C@@H]4F)c(C#N)c3)c2o1` [Compound 153, 4-{7-[3-Cyano-4-((3S,4R)-3-fluoro-piperidin-4-yloxy)-phenyl]-furo[3,2-b]pyridin-2-yl}-3-methoxy-N,N-dimethyl-benzamide hydrochloride], the pIC50 is above 7.00 at TBK1, above 7.00 at IKKε and 6.00 to 7.00 in test [1].

Take `CC(=O)Nc1ccc(-c2cc3nccc(-c4ccc(OC5CCOCC5)c(C#N)c4)c3o2)cc1` [Compound 154]: the pIC50 at TBK1 is above 7.00; on IKKε it was above 7.00; in test [1] it was 5.30 to 6.00.

Consider `COc1cc(C(=O)N(C)C)ccc1-c1cc2nccc(-c3ccc(OCC4CCNCC4)c(C#N)c3)c2o1` [Compound 155, 4-{7-[3-Cyano-4-(piperidin-4-ylmethoxy)-phenyl]-furo[3,2-b]pyridin-2-yl}-3-methoxy-N,N-dimethyl-benzamide], for which the values for the pIC50 (at TBK1; at IKKε; in test [1]) were above 7.00, above 7.00 and 6.00 to 7.00, respectively.

As to `CN(C)C(=O)c1ccc(-c2cc3nccc(-c4ccc(O[C@@H]5CCCOC5)c(C#N)c4)c3o2)cc1` [Compound 156, 4-(7-{3-Cyano-4-[(R)-(tetrahydro-pyran-3-yl)oxy]-phenyl}-furo[3,2-b]pyridin-2-yl)-N,N-dimethyl-benzamide], the values for the pIC50 (at TBK1; on IKKε; in test [1]) were above 7.00, above 7.00 and 5.30 to 6.00, respectively.

Consider `COc1cc(C(=O)N(C)C)ccc1-c1cc2nccc(-c3ccc(OC4CCNCC4)c(C#N)c3)c2o1` [Compound 158, 4-{7-[3-Cyano-4-(piperidin-4-yloxy)-phenyl]-furo[3,2-b]pyridin-2-yl}-3-methoxy-N,N-dimethyl-benzamide Hydrochloride], for which the pIC50 at TBK1 was 6.00 to 7.00; on IKKε, above 7.00; in test [1] it was 6.00 to 7.00.
